According to article PMC4660270 (Structure (London, England : 1993), 2015):

Molecular target: TEAD4 (Homo sapiens, UniProt Q15561)
Assay: ITC
Assay type: binding

TEAD4, sequence (Q15561 217-434): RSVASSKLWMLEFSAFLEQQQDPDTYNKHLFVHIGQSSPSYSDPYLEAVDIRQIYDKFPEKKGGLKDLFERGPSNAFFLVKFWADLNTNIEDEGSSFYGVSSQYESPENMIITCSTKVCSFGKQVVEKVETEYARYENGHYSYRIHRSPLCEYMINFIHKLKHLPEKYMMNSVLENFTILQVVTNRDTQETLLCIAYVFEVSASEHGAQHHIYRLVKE

O=C(O)c1ccccc1Nc1cccc(C(F)(F)F)c1 [FA, flufenamic acid]
Kd: ~73 µM
